Results as given in PMC2072912 (Purinergic Signalling, 2007).
Like-named read-outs stand apart in the source and are kept apart here. Blank lines part the entries; values can stand above or below the compound they belong to.

What was measured:
[1] = system: Achromobacter xylosoxidans (intact bacteria); assay: [3H]adenine competition binding, intact bacteria; conditions: for activity at Achromobacter binding sites: A. xylosoxidans binding studies
[2] = target: T1, rat adenine receptor (Rattus norvegicus, UniProt Q7TN49); conditions: read-out: IC50 previously determined for the rat adenine receptor; cited from earlier work
T1 sequence (Q7TN49 1-304): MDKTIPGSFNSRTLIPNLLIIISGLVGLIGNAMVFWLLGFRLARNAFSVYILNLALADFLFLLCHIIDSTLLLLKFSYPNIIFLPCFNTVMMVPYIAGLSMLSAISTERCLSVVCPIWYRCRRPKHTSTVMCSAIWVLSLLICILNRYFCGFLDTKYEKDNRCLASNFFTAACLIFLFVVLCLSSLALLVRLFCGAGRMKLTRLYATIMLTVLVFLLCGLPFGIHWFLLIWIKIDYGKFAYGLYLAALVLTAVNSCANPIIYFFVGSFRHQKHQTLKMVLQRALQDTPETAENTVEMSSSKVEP

[3] = target: A. denitrificans (intact bacteria); assay: [3H]adenine competition binding, intact bacteria; set-up: species or system Achromobacter denitrificans; conditions: read-out: binding affinity (IC50); A. denitrificans intact cells
[4] = target: A. xylosoxidans membrane preparations; assay: [3H]adenine homologous competition, bacterial membrane preparations; type: binding, Achromobacter xylosoxidans; conditions: estimated from homologous competition, n = 3
[5] = system: A. lwoffii membrane preparations; assay: as above; type: binding, Acinetobacter lwoffii
[6] = system: A. denitrificans membrane preparations; assay: as above; set-up: species or system Achromobacter denitrificans; conditions: read-out: binding affinity (IC50)
[7] = target: A. lwoffii (intact bacteria); assay: [3H]adenine competition binding, intact bacteria; set-up: species or system Acinetobacter lwoffii; conditions: read-out: binding affinity (IC50); A. lwoffii intact cells
[8] = target: T1, rat adenine receptor; conditions: read-out: IC50 previously determined for the rat adenine receptor; cited from earlier work; remark: listed apart in the source
[9] = system: mouse adenine receptor; conditions: cited from earlier work
[10] = system: Saccharomyces cerevisiae; assay: [3H]adenine binding to yeast control organism; conditions: data not shown
[11] = system: microbial contaminations in Tris-HCl buffer; assay: Radioligand binding to stored; conditions: no added protein

IC50 [3]: 253 nM
Kd ([1]; estimated from homologous competition, intact bacteria, n = 8): 11 ± 1.2 nM
IC50 ([1]; read-out: IC50 value for the A. xylosoxidans binding site, intact bacteria, versus 10 nM [3H]adenine): 13 nM
Kd [4]: 5.84 ± 1.12 nM
IC50 ([5]; contaminant 3 membrane preparation, versus 10 nM [3H]adenine, n = 1): 2350 nM
IC50 ([5]; read-out: binding affinity (IC50), A. lwoffii membrane preparations): 1000 nM
IC50 [6]: 2400 nM
IC50 [7]: 299 nM
SMILES: Nc1ncnc2nc[nH]c12 [Adenine]
IC50 [8]: 0.0299 µM
affinity for the mouse adenine receptor [9]: 54.9 nM

activity at Achromobacter binding sites [1]: completely inactive
SMILES: Nc1ncnc2c1ncn2[C@@H]1O[C@H](CO)[C@@H](O)[C@H]1O [Adenosine]

[3H]adenine binding [10]: no [^3H]adenine binding
specific [3H]adenine binding ([11]; buffer stored 2 weeks at 4°C): 562 ± 19 cpm
specific [3H]adenine binding ([11]; buffer stored 6 weeks at 4°C): approximately 7,000 cpm
SMILES: [3H]c1nc2ncnc(N)c2[nH]1 [[^3H]adenine, [8-^3H]Adenine]

Second part, the compound before the results:

SMILES: Nc1nc(N)c2[nH]cnc2n1 [2,6-Diaminopurine]
activity at Achromobacter binding sites [1]: completely inactive

SMILES: C[C@H]1O[C@@H](n2cnc3c(N)ncnc32)[C@H](O)[C@@H]1O [5′-deoxyadenosine]
IC50 [2]: 823 nM

SMILES: Nc1ncnc2nc(Br)[nH]c12 [8-bromoadenine]
IC50 [8]: 17.3 µM

SMILES: CCn1cnc2ncnc(N)c21 [7-ethyladenine]
IC50 [8]: 47.3 µM

SMILES: Nc1nc(O)nc2nc[nH]c12 [2-Hydroxyadenine]
activity at Achromobacter binding sites [1]: completely inactive
